Reference: patent US20110104702A1, “Methods for Predicting Tumor Response to Chemotherapy and Selection of Tumor Treatment” (NATIONAL UNIVERSITY HOSPITAL, priority 2008, published 2011)

What was measured:
cT3-T4 breast tumors = test: Independent dataset: four cycles of pre-operative single agent docetaxel, pathological response; format: in vivo, human
From the text: Next, we applied the 90-supergene panels for pathological response to the original cohort using unsupervised hierarchical clustering, and found, expectedly, the predictors to be highly accurate; the division yielded groups with different PFS, though not statistically significant (Table 1). To validate the pathological response signatures further, we applied them, using SVM, in an independent set of 18 patients treated with four cycles of neoadjuvant three-weekly single agent docetaxel prior to surgery, who had tumor biopsy before and 3 weeks after one chemotherapy cycle. Pathological response definition was similar to our original cohort. Consistent with the findings for the PFS predictors, T2 outperformed T1 signatures, with the AUC of ROC being 0.631 (95% CI 0.350-0.912) for T2 compared to 0.462 (95% CI 0.190-0.733) and 0.446 (95% Cl 0.161-0.731) for TΔ and T1 respectively. T2 signatures accurately identified 77% of poor pathological responders, compared to 54% for both T1 and TΔ (FIG. 2c-d).
An independent dataset comprising of 18 breast cancer patients treated with pre-operative chemotherapy followed by surgery as part of another clinical protocol at our institution was used to validate the gene expression signatures that predict for pathological response. Validation was performed using SVM. In brief, patients from this independent dataset had cT3-T4 breast tumors and were treated with four cycles of pre-operative single agent docetaxel every three weeks. […] Patients underwent lumpectomy or mastectomy and axillary clearance after chemotherapy, and were classified as good (5/18) and poor (13/18) pathological responders using the same criteria as described in our primary cohort. This dataset was not used to validate the PFS signatures as the median follow-up was short at 18.5 months, and only 5/18 had progressed at the time of analysis.

[1] = tested on: locally advanced breast cancers; settings: weekly doxorubicin 14 mg/m^2 for 16 weeks, n=20; cited from earlier work
[2] = four cycles of docetaxel every three weeks, then surgery, n=18

| Compound | good pathological responders (cT3-T4 breast tumors; [2]) | poor pathological responders (cT3-T4 breast tumors; [2]) | patients progressed at the time of analysis (cT3-T4 breast tumors; median follow-up 18.5 months) | median relapse-free survival [1] | patients relapsed [1] |
| --- | --- | --- | --- | --- | --- |
| CC(=O)O[C@@]12CO[C@@H]1C[C@H](O)[C@@]1(C)C(=O)[C@H](O)C3=C(C)[C@@H](OC(=O)[C@H](O)[C@@H](NC(=O)OC(C)(C)C)c4ccccc4)C[C@@](O)([C@@H](OC(=O)c4ccccc4)[C@H]21)C3(C)C [docetaxel] | 5/18 | 13/18 | 5/18 | – | – |
| COc1cccc2c1C(=O)c1c(O)c3c(c(O)c1C2=O)C[C@@](O)(C(=O)CO)C[C@@H]3O[C@H]1C[C@H](N)[C@H](O)[C@H](C)O1 [doxorubicin] | – | – | – | 25 months | 12/20 |
